Experimental data from patent US4667027A, “Cephem compounds and their production” (Takeda Chemical Industries, Ltd., priority 1984, dated 1987).
≈ marks a conversion by molar mass, not a printed value.

Assays:
[1] = system: Pseudomonas aeruginosa IFO 3080; test: Antimicrobial spectrum, minimal inhibitory concentration (agar dilution); format: cell-based; settings: IFO3080, hydrochloride, inoculum 1 loopful of about 10^6/ml
Description: (§1) *Culture medium: 17.5 g of Bacto antibiotic medium 3 (Difco), 5 g of Bact
(§2) yeast extract (Difco), 20 g of Bacto agar (Difco), 1 l of distilled water
(§3) The amount of inoculated microorganism: 1 loopful of about 10^6 /ml o
(§4) microorganism suspension.
(§5) *Medium: Bacto antibiotic medium (Difco) 17.5 g, Bacto yeast extract
(§6) (Difco) 5 g, Bacto agar (Difco) 20 g, distilled water 1 l, pH not

[2] = system: Alcaligenes faecalis IFO 13111; test: as above; format: cell-based; settings: IFO13111, hydrochloride, inoculum 1 loopful of about 10^6/ml
Description: as §1, §2, §3, §4, §5, §6

[3] = system: Serratia marcescens IFO 12648; test: as above; format: cell-based; settings: IFO12648, hydrochloride, inoculum 1 loopful of about 10^6/ml
Description: as §1, §2, §3, §4, §5, §6

[4] = system: Staphylococcus aureus FDA 209P; test: as above; format: cell-based; settings: FDA209P, hydrochloride, inoculum 1 loopful of about 10^6/ml
Description: as §1, §2, §3, §4, §5, §6

[5] = system: Bacillus megaterium IFO 12108; test: as above; format: cell-based; settings: Priestia megaterium, IFO12108, hydrochloride, inoculum 1 loopful of about 10^6/ml
Description: as §1, §2, §3, §4, §5, §6

[6] = system: Bacillus subtilis NIHJ PCI 219; test: as above; format: cell-based; settings: hydrochloride, inoculum 1 loopful of about 10^6/ml
Description: as §1, §2, §3, §4, §5, §6

[7] = system: Proteus vulgalis IFO 3988; test: as above; format: cell-based; settings: hydrochloride, inoculum 1 loopful of about 10^6/ml
Description: as §1, §2, §3, §4, §5, §6

[8] = system: Citrobacter freundii IFO 12681; test: as above; format: cell-based; settings: IFO12681, hydrochloride, inoculum 1 loopful of about 10^6/ml
Description: as §1, §2, §3, §4, §5, §6

[9] = system: Escherichia coli NIHJ JC-2; test: as above; format: cell-based; settings: NIHJJC2, hydrochloride, inoculum 1 loopful of about 10^6/ml
Description: as §1, §2, §3, §4, §5, §6

[10] = system: Klebsiella pneumoniae IFO 3317; test: as above; format: cell-based; settings: IFO3317, hydrochloride, inoculum 1 loopful of about 10^6/ml
Description: as §1, §2, §3, §4, §5, §6

[11] = system: Salmonella typhimurium IFO 12529; test: as above; format: cell-based; settings: Salmonella enterica, hydrochloride, inoculum 1 loopful of about 10^6/ml
Description: as §1, §2, §3, §4, §5, §6

[12] = system: Acinetobacter calcoaceticus IFO 12552; test: as above; format: cell-based; settings: IFO12552, hydrochloride, inoculum 1 loopful of about 10^6/ml
Description: as §1, §2, §3, §4, §5, §6

[13] = system: Brevibacterium thiogenitalis ATCC 19240; test: as above; format: cell-based; settings: Corynebacterium glutamicum, ATCC19240, hydrochloride, inoculum 1 loopful of about 10^6/ml
Description: as §1, §2, §3, §4, §5, §6

Solubility in solvents = format: physicochemical; settings: hydrochloride
cephalosporinase = test: β-lactamase stability test, growth inhibition zone with cephalosporinase; format: cell-based; settings: cephalosporinase added; test organism Escherichia coli PG8; drug 100 μg/ml; nutrient agar pH 7.0
Description: (§7) TAN-591A, B, C are stable to various β-lactamases. The results of stability test of the antibiotic to two β-lactamases employing Escherichia coli PG8 as a test organism are shown in Table 5. […]

Escherichia coli PG8 = test: β-lactamase stability test, growth inhibition zone, no β-lactamase added; format: cell-based; settings: β-lactamase not added; test organism Escherichia coli PG8; drug 100 μg/ml; nutrient agar pH 7.0; read-out: diameter of growth inhibition zone
Description: as §7

penicillinase = test: β-lactamase stability test, growth inhibition zone with penicillinase; format: cell-based; settings: penicillinase added; test organism Escherichia coli PG8; drug 100 μg/ml; nutrient agar pH 7.0
Description: as §7

[14] = dimethylsulfoxide, methanol, acetone, ethyl acetate
[15] = water, aqueous acetone, aqueous alcohol

Row | SMILES | MIC [1] [µg/mL] | MIC [2] [µg/mL] | MIC [3] [µg/mL] | MIC [4] [µg/mL] | MIC [5] [µg/mL] | MIC [6] [µg/mL] | MIC [7] [µg/mL] | MIC [8] [µg/mL] | MIC [9] [µg/mL] | MIC [10] [µg/mL] | MIC [11] [µg/mL] | MIC [12] [µg/mL] | MIC [13] [µg/mL] | Solubility (Solubility in solvents; [14]) | Solubility (Solubility in solvents; [15]) | diameter of growth inhibition zone (cephalosporinase) [mm] | zone of inhibition at 100 µg/mL (Escherichia coli PG8) [mm] | diameter of growth inhibition zone (penicillinase) [mm]
1 | CC(N)C(=O)NC(CO)C(=O)NC(CO)C(=O)NC(CCCNC(=N)N)C(O)CC(=O)OCC1=C(C(=O)O)N2C(=O)C(NC(=O)CCCC(N)C(=O)O)C2SC1 (stereo not drawn) [TAN-592F] | > 50 | 12.5 (≈ 15.3 µM) | > 50 | 50 (≈ 61.1 µM) | 1.56 (≈ 1.91 µM) | 1.56 (≈ 1.91 µM) | 50 (≈ 61.1 µM) | > 50 | > 50 | > 50 | > 50 | > 50 | 3.13 (≈ 3.82 µM) | Sparingly soluble | Easily soluble |  |  | 
2 | N=C(N)NCCCC(NC(=O)C(N)CO)C(O)CC(=O)OCC1=C(C(=O)O)N2C(=O)C(NC=O)(NC(=O)CCCC(N)C(=O)O)C2SC1 (stereo not drawn) [TAN-592A] | 50 (≈ 71 µM) | 3.13 (≈ 4.45 µM) | 50 (≈ 71 µM) | > 50 | 12.5 (≈ 17.8 µM) | 12.5 (≈ 17.8 µM) | 12.5 (≈ 17.8 µM) | 50 (≈ 71 µM) | 12.5 (≈ 17.8 µM) | 50 (≈ 71 µM) | 50 (≈ 71 µM) | 1.56 (≈ 2.22 µM) | 3.13 (≈ 4.45 µM) | Sparingly soluble | Easily soluble | 28 | 28 | 28
3 | N=C(N)NCCCC(NC(=O)C(CO)NC(=O)C(N)CO)C(O)CC(=O)OCC1=C(C(=O)O)N2C(=O)C(NC(=O)CCCC(N)C(=O)O)C2SC1 (stereo not drawn) [TAN-592E] | > 50 | 25 (≈ 33.4 µM) | > 50 | > 50 | 1.56 (≈ 2.09 µM) | 1.56 (≈ 2.09 µM) | 50 (≈ 66.9 µM) | > 50 | > 50 | > 50 | 50 (≈ 66.9 µM) | > 50 | 3.13 (≈ 4.19 µM) | Sparingly soluble | Easily soluble |  |  | 
4 | CC1(C)S[C@@H]2[C@H](NC(=O)Cc3ccccc3)C(=O)N2[C@H]1C(=O)O [PCG, benzylpenicillin, reference compound] |  |  |  |  |  |  |  |  |  |  |  |  |  |  |  |  | 22 | 
5 | NCCCCC(NC(=O)C(CO)NC(=O)C(N)CO)C(O)CC(=O)OCC1=C(C(=O)O)N2C(=O)C(NC=O)(NC(=O)CCCC(N)C(=O)O)C2SC1 (stereo not drawn) [TAN-591B] | > 100 | 12.5 (≈ 16.4 µM) | 50 (≈ 65.5 µM) | > 100 | 12.5 (≈ 16.4 µM) | 25 (≈ 32.8 µM) | 25 (≈ 32.8 µM) | 50 (≈ 65.5 µM) | 25 (≈ 32.8 µM) | 50 (≈ 65.5 µM) | 25 (≈ 32.8 µM) | 3.13 (≈ 4.1 µM) | 6.25 (≈ 8.19 µM) | Sparingly soluble | Easily soluble | 23 | 23 | 23
6 | N=C(N)NCCCC(NC(=O)C(N)CO)C(O)CC(=O)OCC1=C(C(=O)O)N2C(=O)C(NC(=O)CCCC(N)C(=O)O)C2SC1 (stereo not drawn) [TAN-592D] | > 50 | 25 (≈ 37.8 µM) | > 50 | > 50 | 1.56 (≈ 2.36 µM) | 1.56 (≈ 2.36 µM) | 50 (≈ 75.7 µM) | > 50 | > 50 | > 50 | 50 (≈ 75.7 µM) | > 50 | 3.13 (≈ 4.74 µM) | Sparingly soluble | Easily soluble |  |  | 
7 | CC(N)C(=O)NC(CO)C(=O)NC(CO)C(=O)NC(CCCCN)C(O)CC(=O)OCC1=C(C(=O)O)N2C(=O)C(NC=O)(NC(=O)CCCC(N)C(=O)O)C2SC1 (stereo not drawn) [TAN-591C] | > 100 | 50 (≈ 60 µM) | 50 (≈ 60 µM) | > 100 | 25 (≈ 30 µM) | 25 (≈ 30 µM) | 50 (≈ 60 µM) | 100 (≈ 120 µM) | 50 (≈ 60 µM) | 50 (≈ 60 µM) | 50 (≈ 60 µM) | 3.13 (≈ 3.75 µM) | 12.5 (≈ 15 µM) | Sparingly soluble | Easily soluble | 22 | 22 | 22
8 | CC(N)C(=O)NC(CO)C(=O)NC(CO)C(=O)NC(CCCNC(=N)N)C(O)CC(=O)OCC1=C(C(=O)O)N2C(=O)C(NC=O)(NC(=O)CCCC(N)C(=O)O)C2SC1 (stereo not drawn) [TAN-592C] | > 50 | 6.25 (≈ 7.25 µM) | 50 (≈ 58 µM) | > 50 | 12.5 (≈ 14.5 µM) | 12.5 (≈ 14.5 µM) | 25 (≈ 29 µM) | > 50 | 25 (≈ 29 µM) | 50 (≈ 58 µM) | 25 (≈ 29 µM) | 3.13 (≈ 3.63 µM) | 6.25 (≈ 7.25 µM) | Sparingly soluble | Easily soluble | 29 | 29 | 29
9 | CO[C@@]1(NC(=O)CCC[C@@H](N)C(=O)O)C(=O)N2C(C(=O)O)=C(COC(N)=O)CS[C@@H]21 [CMC, cephamycin C, reference compound] |  |  |  |  |  |  |  |  |  |  |  |  |  |  |  |  | 34 | 34
